Reference: ChEMBL document CHEMBL1201862, “PubChem BioAssay data set” (2004)
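Growth conditions: 96-well plates. Treatment: test compound, 48 hours, 5 concentrations. Analysis: linear interpolation between bracketing concentrations; unreached endpoints set to highest concentration. GI50 marks 50% less growth.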 Calls of active or inactive are those of the source. Rule as the data show it: active = GI50 up to about 1.1 µM and inactive = higher.

Assays:
Experiment in all cases: NCI anticancer screen, dose series, 48 h
[1] = tested on: BT-549
[2] = tested on: CAKI-1
[3] = tested on: DU-145
[4] = tested on: EKVX
[5] = tested on: HCT-116
[6] = tested on: HL-60
[7] = tested on: HT-29
[8] = tested on: Hs-578T
[9] = tested on: MCF7
[10] = tested on: NCI-H226
[11] = tested on: NCI/ADR-RES
[12] = tested on: RPMI-8226
[13] = tested on: SK-MEL-5
[14] = tested on: SR
[15] = tested on: SW-620

## CC1=NN(c2nc(N)nc(CSCc3nc(N)nc(N(C)C)n3)n2)C(C)(C)C1
[1]
  GI50: > 100 µM (inactive)
[2]
  GI50: > 100 µM (inactive)
[3]
  GI50: > 100 µM (inactive)
[4]
  GI50: > 100 µM (inactive)
[5]
  GI50: > 100 µM (inactive)
[6]
  GI50: > 100 µM (inactive)
[7]
  GI50: > 100 µM (inactive)
[8]
  GI50: > 100 µM (inactive)
[9]
  GI50: > 100 µM (inactive)
[10]
  GI50: > 100 µM (inactive)
[11]
  GI50: > 100 µM (inactive)
[12]
  GI50: > 100 µM (inactive)
[13]
  GI50: > 100 µM (inactive)
[14]
  GI50: > 100 µM (inactive)
[15]
  GI50: > 100 µM (inactive)

## CCOC(=O)c1cc(C(=O)c2ccccc2)n2nc(-c3ccc(Cl)cc3)ccc12
[1]
  GI50: 18.1 µM (inactive)
[2]
  GI50: 31.8 µM (inactive)
[3]
  GI50: 27.6 µM (inactive)
[4]
  GI50: 21.8 µM (inactive)
[5]
  GI50: 44.7 µM (inactive)
[6]
  GI50: > 100 µM (inactive)
[7]
  GI50: 23.7 µM (inactive)
[8]
  GI50: 17.5 µM (inactive)
[9]
  GI50: 20.9 µM (inactive)
[10]
  GI50: 20.4 µM (inactive)
[11]
  GI50: 23.4 µM (inactive)
[12]
  GI50: 91.2 µM (inactive)
[13]
  GI50: 17.4 µM (inactive)
[14]
  GI50: 72.6 µM (inactive)
[15]
  GI50: 93.8 µM (inactive)

## NNC(=O)c1ccc(OCc2nc3ccccc3[nH]2)cc1
[1]
  GI50: 52.2 µM (inactive)
[2]
  GI50: > 100 µM (inactive)
[3]
  GI50: 94.2 µM (inactive)
[4]
  GI50: > 100 µM (inactive)
[5]
  GI50: 29.1 µM (inactive)
[6]
  GI50: 43.7 µM (inactive)
[7]
  GI50: > 100 µM (inactive)
[8]
  GI50: 28.1 µM (inactive)
[9]
  GI50: 72.6 µM (inactive)
[10]
  GI50: > 100 µM (inactive)
[11]
  GI50: > 100 µM (inactive)
[12]
  GI50: 55.6 µM (inactive)
[13]
  GI50: 27.9 µM (inactive)
[14]
  GI50: 25.2 µM (inactive)
[15]
  GI50: > 100 µM (inactive)

## COc1cc(/C=C2\N=C(c3ccccc3)N(c3ccc(S(=O)(=O)Nc4nccs4)cc3)C2=O)ccc1O
[1]
  GI50: 73.6 µM (inactive)
[2]
  GI50: > 100 µM (inactive)
[3]
  GI50: > 100 µM (inactive)
[4]
  GI50: 63.8 µM (inactive)
[5]
  GI50: 70.3 µM (inactive)
[6]
  GI50: 51.2 µM (inactive)
[7]
  GI50: 59.7 µM (inactive)
[8]
  GI50: > 100 µM (inactive)
[9]
  GI50: 67.1 µM (inactive)
[10]
  GI50: 71 µM (inactive)
[11]
  GI50: > 100 µM (inactive)
[12]
  GI50: 45 µM (inactive)
[13]
  GI50: 75.9 µM (inactive)
[14]
  GI50: 59.7 µM (inactive)
[15]
  GI50: 77.6 µM (inactive)

## CCCCNC(=O)Nc1c(C(N)=O)c2n(c1C(=O)OCC)CCCCC2
[1]
  GI50: > 100 µM (inactive)
[2]
  GI50: > 100 µM (inactive)
[3]
  GI50: > 100 µM (inactive)
[4]
  GI50: > 100 µM (inactive)
[5]
  GI50: > 100 µM (inactive)
[6]
  GI50: > 100 µM (inactive)
[7]
  GI50: > 100 µM (inactive)
[8]
  GI50: 64.9 µM (inactive)
[9]
  GI50: > 100 µM (inactive)
[10]
  GI50: 3.89 µM (inactive)
[11]
  GI50: > 100 µM (inactive)
[12]
  GI50: > 100 µM (inactive)
[13]
  GI50: > 100 µM (inactive)
[14]
  GI50: 75.9 µM (inactive)
[15]
  GI50: > 100 µM (inactive)

## CC(C)(C)OC(=O)NCC(=O)N(CCc1ccc(Cl)c(Cl)c1)CCN1CCCC1
[1]
  GI50: 20 µM (inactive)
[2]
  GI50: 18.4 µM (inactive)
[3]
  GI50: 16.9 µM (inactive)
[4]
  GI50: 21.7 µM (inactive)
[5]
  GI50: 13.7 µM (inactive)
[6]
  GI50: 12.1 µM (inactive)
[7]
  GI50: 6.32 µM (inactive)
[8]
  GI50: 18.8 µM (inactive)
[9]
  GI50: 16.4 µM (inactive)
[10]
  GI50: 15 µM (inactive)
[11]
  GI50: 15.3 µM (inactive)
[12]
  GI50: 5.01 µM (inactive)
[13]
  GI50: 13.7 µM (inactive)
[14]
  GI50: 14.5 µM (inactive)
[15]
  GI50: 16.6 µM (inactive)

## O=C1NN=C2C=C(c3ccc(Cl)cc3)CC(c3cccc(Cl)c3)C12 (stereo not given)
[1]
  GI50: 58.2 µM (inactive)
[2]
  GI50: 34.8 µM (inactive)
[3]
  GI50: 64.3 µM (inactive)
[4]
  GI50: 22.1 µM (inactive)
[5]
  GI50: 18.5 µM (inactive)
[6]
  GI50: 21.2 µM (inactive)
[7]
  GI50: 21.9 µM (inactive)
[8]
  GI50: 19.9 µM (inactive)
[9]
  GI50: 17.3 µM (inactive)
[10]
  GI50: 20.4 µM (inactive)
[11]
  GI50: 39 µM (inactive)
[12]
  GI50: 20.5 µM (inactive)
[13]
  GI50: 18.5 µM (inactive)
[14]
  GI50: 18.2 µM (inactive)
[15]
  GI50: 27.9 µM (inactive)

## CCCCn1c(C)c(C(=O)CC)c(C(=O)NCCN2CCN(c3ccccc3Cl)CC2)c1C
[1]
  GI50: 16 µM (inactive)
[2]
  GI50: 16.5 µM (inactive)
[3]
  GI50: 20.1 µM (inactive)
[4]
  GI50: 16.3 µM (inactive)
[5]
  GI50: 14.3 µM (inactive)
[6]
  GI50: 15.2 µM (inactive)
[7]
  GI50: 13.4 µM (inactive)
[8]
  GI50: 23.5 µM (inactive)
[9]
  GI50: 18.8 µM (inactive)
[10]
  GI50: 20.3 µM (inactive)
[11]
  GI50: 16 µM (inactive)
[12]
  GI50: 16.3 µM (inactive)
[13]
  GI50: 14.1 µM (inactive)
[14]
  GI50: 13.7 µM (inactive)
[15]
  GI50: 47.1 µM (inactive)

## CCOC1=NC(C(F)(F)F)(C(F)(F)F)N=C(/N=C(/N)N(C)C(C(C)C)P(=O)(OC(C)C)OC(C)C)O1 (stereo not given)
[1]
  GI50: 40.6 µM (inactive)
[2]
  GI50: > 100 µM (inactive)
[3]
  GI50: > 100 µM (inactive)
[4]
  GI50: 52 µM (inactive)
[5]
  GI50: 82.2 µM (inactive)
[6]
  GI50: 27.7 µM (inactive)
[7]
  GI50: > 100 µM (inactive)
[8]
  GI50: 61.4 µM (inactive)
[9]
  GI50: > 100 µM (inactive)
[10]
  GI50: > 100 µM (inactive)
[11]
  GI50: 31.3 µM (inactive)
[12]
  GI50: 45.9 µM (inactive)
[13]
  GI50: 59.8 µM (inactive)
[14]
  GI50: 55.3 µM (inactive)
[15]
  GI50: 49.5 µM (inactive)

## CC1CN=C(Nc2ccc(F)c(Cl)c2)S1 (stereo not given)
[1]
  GI50: > 100 µM (inactive)
[2]
  GI50: 53.6 µM (inactive)
[3]
  GI50: > 100 µM (inactive)
[4]
  GI50: 43.2 µM (inactive)
[5]
  GI50: 71 µM (inactive)
[6]
  GI50: 29.9 µM (inactive)
[7]
  GI50: > 100 µM (inactive)
[8]
  GI50: > 100 µM (inactive)
[9]
  GI50: > 100 µM (inactive)
[10]
  GI50: > 100 µM (inactive)
[11]
  GI50: 42.5 µM (inactive)
[12]
  GI50: 39.3 µM (inactive)
[13]
  GI50: 58.5 µM (inactive)
[14]
  GI50: 31.5 µM (inactive)
[15]
  GI50: > 100 µM (inactive)

## Cc1cc(S(=O)(=O)NC2=Nc3ccc(Cl)cc3C(c3ccccc3)N2)c(S)cc1Cl (stereo not given)
[1]
  GI50: > 100 µM (inactive)
[2]
  GI50: > 100 µM (inactive)
[3]
  GI50: > 100 µM (inactive)
[4]
  GI50: > 100 µM (inactive)
[5]
  GI50: 36.8 µM (inactive)
[6]
  GI50: > 100 µM (inactive)
[7]
  GI50: > 100 µM (inactive)
[8]
  GI50: > 100 µM (inactive)
[9]
  GI50: > 100 µM (inactive)
[10]
  GI50: 15.4 µM (inactive)
[11]
  GI50: > 100 µM (inactive)
[12]
  GI50: 97.1 µM (inactive)
[13]
  GI50: > 100 µM (inactive)
[14]
  GI50: 14.3 µM (inactive)
[15]
  GI50: > 100 µM (inactive)

## CC(=O)O[C@H]1[C@@H](N2CCOCC2)C[C@H]2[C@@H]3CC=C4C[C@@H](N5CCCC5)CC[C@]4(C)[C@H]3CC[C@@]21C
[1]
  GI50: > 100 µM (inactive)
[2]
  GI50: > 100 µM (inactive)
[3]
  GI50: > 100 µM (inactive)
[4]
  GI50: > 100 µM (inactive)
[5]
  GI50: 65.8 µM (inactive)
[6]
  GI50: 56.4 µM (inactive)
[7]
  GI50: 5.21 µM (inactive)
[8]
  GI50: > 100 µM (inactive)
[9]
  GI50: > 100 µM (inactive)
[10]
  GI50: > 100 µM (inactive)
[11]
  GI50: > 100 µM (inactive)
[12]
  GI50: > 100 µM (inactive)
[13]
  GI50: > 100 µM (inactive)
[14]
  GI50: 49.7 µM (inactive)
[15]
  GI50: > 100 µM (inactive)

## O=C1c2ccccc2-c2nc(-c3ccccc3)cc3c2c1nc1ccccc13
[1]
  GI50: 17.7 µM (inactive)
[2]
  GI50: 27.2 µM (inactive)
[3]
  GI50: 13.9 µM (inactive)
[4]
  GI50: 23.5 µM (inactive)
[5]
  GI50: 10.2 µM (inactive)
[6]
  GI50: 1.03 µM (active)
[7]
  GI50: 13.2 µM (inactive)
[8]
  GI50: 22.6 µM (inactive)
[9]
  GI50: 4.51 µM (inactive)
[10]
  GI50: 16.6 µM (inactive)
[11]
  GI50: 14.5 µM (inactive)
[12]
  GI50: 0.479 µM (active)
[13]
  GI50: 2.67 µM (inactive)
[14]
  GI50: 2.11 µM (inactive)
[15]
  GI50: 13.2 µM (inactive)
